Article PMC7549094 (Journal of Medicinal Chemistry, 2020)

Tests used:
Assay in all cases: receptor profile (Table S4)
hr Al1A antag = target: T1, hr Al1A antag (Homo sapiens, UniProt P35348); format: biochemical
T1 sequence (P35348 1-466): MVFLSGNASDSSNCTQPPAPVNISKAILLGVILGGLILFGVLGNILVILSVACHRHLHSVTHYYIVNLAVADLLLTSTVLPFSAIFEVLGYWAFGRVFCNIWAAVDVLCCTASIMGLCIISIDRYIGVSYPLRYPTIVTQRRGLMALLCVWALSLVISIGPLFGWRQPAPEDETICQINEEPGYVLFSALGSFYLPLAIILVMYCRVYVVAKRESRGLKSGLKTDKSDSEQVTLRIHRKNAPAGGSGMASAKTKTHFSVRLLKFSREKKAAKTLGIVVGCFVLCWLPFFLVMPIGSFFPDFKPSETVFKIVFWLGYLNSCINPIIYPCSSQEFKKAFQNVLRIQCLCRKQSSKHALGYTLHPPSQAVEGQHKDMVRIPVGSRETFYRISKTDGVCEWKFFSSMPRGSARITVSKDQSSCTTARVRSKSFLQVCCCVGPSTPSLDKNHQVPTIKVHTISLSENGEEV

hr Alpha2B = target: T2, hr Alpha2B (Homo sapiens, UniProt P18089); format: binding
T2 sequence (P18089 1-450): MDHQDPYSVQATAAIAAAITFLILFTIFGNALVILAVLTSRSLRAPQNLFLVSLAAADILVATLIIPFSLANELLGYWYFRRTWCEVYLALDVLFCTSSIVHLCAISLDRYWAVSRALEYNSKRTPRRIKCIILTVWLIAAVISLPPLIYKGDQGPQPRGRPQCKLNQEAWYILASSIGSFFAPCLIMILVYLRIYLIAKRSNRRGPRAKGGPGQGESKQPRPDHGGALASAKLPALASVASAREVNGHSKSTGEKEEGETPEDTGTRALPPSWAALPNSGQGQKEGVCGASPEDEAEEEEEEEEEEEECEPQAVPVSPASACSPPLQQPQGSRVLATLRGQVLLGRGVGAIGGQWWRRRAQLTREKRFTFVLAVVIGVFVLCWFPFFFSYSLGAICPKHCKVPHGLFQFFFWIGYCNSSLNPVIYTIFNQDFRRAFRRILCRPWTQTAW

hr ERa ag = hr ERa ag (Homo sapiens, UniProt P03372); format: biochemical
hr ERa ag, sequence (P03372 whole entry): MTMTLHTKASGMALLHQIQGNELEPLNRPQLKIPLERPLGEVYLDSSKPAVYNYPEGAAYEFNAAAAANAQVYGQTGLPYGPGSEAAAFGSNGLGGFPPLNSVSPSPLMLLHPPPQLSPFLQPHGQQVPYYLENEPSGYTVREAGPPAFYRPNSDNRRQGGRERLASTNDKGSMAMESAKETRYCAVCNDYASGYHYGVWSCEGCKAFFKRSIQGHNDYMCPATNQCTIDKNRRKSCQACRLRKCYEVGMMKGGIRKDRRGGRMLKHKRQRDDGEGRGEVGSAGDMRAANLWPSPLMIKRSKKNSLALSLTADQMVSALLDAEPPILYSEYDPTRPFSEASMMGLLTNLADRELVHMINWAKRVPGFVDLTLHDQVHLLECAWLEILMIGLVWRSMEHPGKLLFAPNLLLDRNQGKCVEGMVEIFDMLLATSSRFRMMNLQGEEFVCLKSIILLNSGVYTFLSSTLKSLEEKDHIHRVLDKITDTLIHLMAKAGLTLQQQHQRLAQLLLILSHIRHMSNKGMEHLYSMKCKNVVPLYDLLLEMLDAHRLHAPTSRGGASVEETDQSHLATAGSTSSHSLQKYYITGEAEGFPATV

`Cc1nc(C)c(C(=O)Nc2ccc(F)c(-c3nc4ncc(-c5ncccc5C)cn4n3)c2)o1` [compound 1, N-(4-Fluoro-3-(6-(3-methylpyridin-2-yl)-[1,2,4]triazolo[1,5-a]pyrimidin-2-yl)phenyl)-2,4-dimethyloxazole-5-carboxamide] gave an EC50/IC50 (hr Al1A antag; hr Al1A antag) of over 30 µM, an inhibition at 10 µM (hr Al1A antag; read-out: % inh/act @ 10 µM) of -4% and an inhibition at 30 µM (hr Al1A antag; read-out: % inh/act @ 30 µM) of 8%. The EC50/IC50 (hr Alpha2B; hr Alpha2B) was over 30 µM, the inhibition at 10 µM (hr Alpha2B; read-out: % inh/act @ 10 µM) was 13% and the inhibition at 30 µM (hr Alpha2B; read-out: % inh/act @ 30 µM) was 16%. The EC50/IC50 (hr ERa ag; hr ERa ag) was over 30 µM, the inhibition at 10 µM (hr ERa ag; read-out: % inh/act @ 10 µM) was 7% and the inhibition at 30 µM (hr ERa ag; read-out: % inh/act @ 30 µM) was 15%.
